Data reported in publication PMC6522510 (Nature Communications, 2019).
Like-named read-outs stand apart in the source and are kept apart here.

Columns and labels:
Design in all cases: species or system AML cell lines (8); Primary HTS, single concentration about 10 uM, Cell Titer Glo viability; log10 luminescence, per cent inhibition relative to cycloheximide control
Conditions in all cases: 72 h, relative to cycloheximide control, log10 luminescence, inhibitor
CHRF288-11 = system: CHRF288-11
CMK = system: CMK
CMS = system: CMS
M07e = system: M07e
ML-2 = system: ML-2
MOLM-13 = system: MOLM-13
MV4-11 = system: MV4-11
U937 = system: U937

SMILES	CHRF288-11 %inh (CHRF288-11)	CMK %inh (CMK)	CMS %inh (CMS)	M07e %inh (M07e)	ML-2 %inh (ML-2)	MOLM-13 %inh (MOLM-13)	MV4-11 %inh (MV4-11)	U937 %inh (U937)	CHRF288-11 %inh (CHRF288-11; CHRF288-11 %inh, 10 µM)	CMK %inh (CMK; CMK %inh, 10 µM)	CMS %inh (CMS; CMS %inh, 10 µM)	M07e %inh (M07e; M07e %inh, 10 µM)	ML-2 %inh (ML-2; ML-2 %inh, 10 µM)	MOLM-13 %inh (MOLM-13; MOLM-13 %inh, 10 µM)	MV4-11 %inh (MV4-11; MV4-11 %inh, 10 µM)	U937 %inh (U937; U937 %inh, 10 µM)
COC(=O)Nc1nc2cc(Oc3ccc(NC(=O)Nc4ccccc4)cc3)ccc2[nH]1 [SJ000573165-1, T261/64/2]	29.47%	109.7%	99.63%	91.37%	57.46%	87.75%	69.12%	81.37%	–	–	–	–	–	–	–	–
Cc1nnc(-c2ccc(C)c(-c3ccc(C(=O)NCc4ccc(Cl)cc4)cc3)c2)o1 [SJ000573166-1, R5419/62/6]	-0.1255%	2.525%	4.153%	6.199%	2.787%	2.185%	-0.3161%	3.066%	–	–	–	–	–	–	–	–
NC(=O)c1sc(-n2cnc3ccc(C(F)(F)F)cc32)cc1OCc1ccccc1Br [SJ000573167-1, U19121/196/1]	1.336%	-1.461%	15.36%	5.031%	22.34%	2.5%	1.988%	43.5%	–	–	–	–	–	–	–	–
Nc1nccc(-c2c(-c3ccc(F)cc3)ncn2C2CCNCC2)n1 [SJ000573168-1, JB-19127-269D | LD19161-244A1]	–	–	–	–	–	–	–	–	34.51%	44.14%	7.951%	19.95%	22.46%	64.89%	77.89%	27.96%
Nc1nccc(-c2c(-c3ccc(F)cc3)ncn2C2CCNCC2)n1 [SJ000573168-2, JB-19127-269D | LD19161-244A1]	–	–	–	16.87%	–	–	–	–	101.4%	34.82%	15.45%	–	28.94%	78.79%	54.74%	15.47%
CC1=C(C(=O)Nc2ccc3[nH]nc(C)c3c2)C(c2ccc(C(F)(F)F)cc2)CC(=O)N1 (stereo not drawn) [SJ000573169-1, SD204573-190A1]	46.87%	106.1%	35.88%	28.71%	13.81%	15.8%	29.81%	19.8%	–	–	–	–	–	–	–	–
OCCCNc1nccc(-c2c(-c3ccc(F)cc3)nn3cc(C(F)(F)F)ccc23)n1 [SJ000573170-1, R5361/115/1]	127.7%	125%	105.9%	-1.662%	-1.781%	-2.069%	-0.4985%	1.034%	–	–	–	–	–	–	–	–
c1ccc(COc2ccc(Nc3ncnc4ccc(-c5ccco5)cc34)cc2)cc1 [SJ000573171-1, C3157/71/1]	-4.196%	6.655%	1.088%	-0.2498%	3.492%	27.04%	14.65%	10.84%	–	–	–	–	–	–	–	–
O=C1NC(=O)C(c2cccc(Cl)c2)=C1Nc1ccc(O)c(Cl)c1 [SJ000573172-1, RS98844-062A3]	12.93%	35.38%	2.425%	6.042%	2.635%	11.18%	8.124%	3.736%	–	–	–	–	–	–	–	–
c1ccc(-c2nc3n(c2-c2ccc4c(c2)OCO4)CCC3)nc1 [SJ000573174-1, JB42196-142B1]	104.5%	48.28%	32.28%	7.377%	5.523%	37.41%	4.462%	1.96%	–	–	–	–	–	–	–	–
CN(c1ccc(NC(=O)NCCN2CCOCC2)cc1)c1ccnc(Nc2ccc(CS(C)(=O)=O)cc2)n1 [SJ000573175-1, U17983/92/2]	-0.5072%	-0.4287%	0.2292%	2.849%	2.492%	82.21%	85.52%	4.061%	–	–	–	–	–	–	–	–
Oc1cccc(-c2nc(-c3ccccc3)[nH]c2-c2ccncc2)c1 [SJ000573176-1, KH49127-012A1]	2.324%	4.668%	5.24%	1.15%	2.359%	8.153%	3.826%	2.636%	–	–	–	–	–	–	–	–
CCN(CC)S(=O)(=O)c1ccc(OC)c(Nc2ncc(-c3ccccc3)o2)c1 [SJ000573177-1, U14961/35/1]	-8.829%	11.05%	2.203%	-3.903%	1.232%	13.29%	74.67%	3.148%	–	–	–	–	–	–	–	–
COc1cccc(-n2nc(C)c3c(N/N=C(\C)c4ccncc4)ncnc32)c1 [SJ000573178-1, U17747/163/1]	-4.056%	-0.9949%	0.07052%	-1.478%	-1.055%	-1.351%	-0.7035%	-2.387%	–	–	–	–	–	–	–	–
O=C1NC(=O)C(c2cccc(Cl)c2)=C1Nc1ccc(Cl)c(C(=O)O)c1 [SJ000573179-1, RS98844-062A1]	-5.305%	-1.769%	-1.594%	-0.5868%	0.225%	-0.7042%	-0.02775%	1.114%	–	–	–	–	–	–	–	–
Nc1nccc(-c2c(-c3ccc(F)cc3)ncn2CCCN2CCOCC2)n1 [SJ000573180-1, TG19207-124A1]	-0.01823%	-0.5604%	-3.18%	1.031%	2.942%	-0.9293%	0.7283%	3.947%	–	–	–	–	–	–	–	–
CC1=C(C(=O)Nc2cc(Cl)c3[nH]ncc3c2)C(c2ccc(C(F)(F)F)cc2)CC(=O)N1 (stereo not drawn) [SJ000573181-1, SD204573-088A4]	20.3%	54.4%	8.733%	13.65%	13.01%	4.804%	31.1%	8.409%	–	–	–	–	–	–	–	–
Nc1nccc(-c2c(-c3ccc(F)cc3)ncn2C2CCC(O)CC2)n1 (stereo not drawn) [SJ000573182-1, MS27011-022A2]	23.09%	25.82%	9.299%	6.63%	10.85%	26.67%	24.38%	5.213%	–	–	–	–	–	–	–	–
O=C1NC(=O)C(c2ccccc2Cl)=C1Nc1cccc(O)c1 [SJ000573183-1, BS98679-018A5]	41.21%	56.79%	26.93%	51.61%	39.83%	67.3%	22.8%	51.74%	–	–	–	–	–	–	–	–
COc1cccc(-c2c[nH]c3c(N/N=C/c4ccncc4)ncnc23)c1 [SJ000573184-1, U18675/6/1]	52.41%	96.73%	90.74%	38.1%	19.51%	59.82%	58.64%	14.24%	–	–	–	–	–	–	–	–
NC(=O)c1sc(-n2cnc3cc(C(F)(F)F)ccc32)cc1OCc1ccccc1Br [SJ000573185-1, U19121/197/1]	0.2512%	3.577%	-1.069%	-2.426%	-0.4297%	0.4978%	1.859%	-0.2413%	–	–	–	–	–	–	–	–
